# In patent publication US11208382B2, “Entinostat-containing compound, crystal form of compound thereof, and preparation method therefor and pharmaceutical composition thereof” (Hangzhou SoliPharma Co., Ltd., priority 2017, dated 2021):
# How the values were obtained:
# Type in all cases: physicochemical
# [1] = phase stability test of the crystalline forms; details: for phases after storage: stored at room temperature and high temperature for 14 days
# Experimental: X-ray powder diffraction (XRPD): performed on Bruker D8 Advance diffractometer. The scan range 3-40° 20, step size 0.02020, and speed 0.2 s/step. Appropriate amounts of Crystalline Form of Compound A and Crystalline Form of Compound B in the present invention were used respectively for the phase stability test. The conditions were room temperature and high temperature (50° C.).
# [2] = chemical stability test by HPLC analysis
# Experimental: HPLC data were collected on Ultimate 3000 under the following conditions: column, YMC-Pack ODS-AQ (4.6*250 mm*5 μm); column temperature, 40° C.; flow rate, 1.5 mL/min; detection wavelength, 254 nm; injection volume 3 uL; operation time, 40 min; mobile phase, a mixture of acetonitrile: 10 mM monopotassium phosphate=1:2. 1. Appropriate amounts of entinostat and Compound A in the present invention were used respectively for HPLC analysis, the purity of the compounds and the maximum single impurity (RRT=1.403) were calculated. 2. Chemical stability tests of entinostat and Compound A in the present invention were performed. The conditions were as follows: room temperature, high temperature (40° C.), high humidity (75% RH), and acceleration (40° C.-75% RH), and the storage time is 14 days. Using HPLC analysis, the change of maximum single impurity (RRT=1.403), the change of the main ingredient level and the change of total impurities number were studied.
# [3] = apparent water solubility test; details: for solubility at 3 min: thermodynamic from solid, apparent water solubility, water bath 25° C.±2° C., visual check for clear solution
# Experimental: Entinostat, Compound A and Compound B in the present invention were tested for the apparent water solubility, and the operations were as follows:
# Placed 3 mg of sample in a 100 mL Erlenmeyer flask in a water bath at 25° C.±2° C., added water by doubling, stirred at about 200 rpm/min, checked visually if the solution was clear. The interval between each addition of water was 3 minutes, and the maximum amount of water to add was 60 mL.
# [4] = High temperature (50° C.), 7 days
# [5] = High temperature (50° C.), 14 days
# [6] = High temperature (40° C.), 14 days, first line so headed (r10)
# [7] = High temperature, 14 days, second line so headed (r12)
# [8] = Speeded-up (acceleration, 40° C.-75% RH), 14 days
# [9] = High temperature (40° C.), 14 days, first line so headed (r10), listed as Entinostat
# [10] = High temperature, 14 days, second line so headed (r12), listed as Entinostat
# [11] = Room temperature, 0 days, listed as Entinostat
# [12] = Room temperature, 14 days, listed as Entinostat
# [13] = Speeded-up (acceleration, 40° C.-75% RH), 14 days, listed as Entinostat
smiles,measurement,setting,value
Nc1ccccc1NC(=O)c1ccc(CNC(=O)OCc2cccnc2)cc1 [Compound A],Crystal form after storage,[1]; [4],unchanged
same,Crystal form after storage,[1]; [5],unchanged
same,Crystal form after storage,"[1]; Room temperature, 7 days",unchanged
same,Crystal form after storage,"[1]; Room temperature, 14 days",unchanged
same,phases after storage,[1],unchanged
same,Main ingredient (%),[2]; [6],99.9%
same,Number of impurities (≥0.04%),[2]; [6],0
same,RRT = 1.403 (%) maximum single impurity,[2]; [6],0.11%
same,Main ingredient (%),[2]; [7],99.9%
same,Number of impurities (≥0.04%),[2]; [7],0
same,RRT = 1.403 (%) maximum single impurity,[2]; [7],0.11%
same,Main ingredient (%),"[2]; Room temperature, 0 days",99.9%
same,Number of impurities (≥0.04%),"[2]; Room temperature, 0 days",0
same,RRT = 1.403 (%) maximum single impurity,"[2]; Room temperature, 0 days",0.12%
same,Main ingredient (%),"[2]; Room temperature, 14 days",99.9%
same,Number of impurities (≥0.04%),"[2]; Room temperature, 14 days",0
same,RRT = 1.403 (%) maximum single impurity,"[2]; Room temperature, 14 days",0.13%
same,Main ingredient (%),[2]; [8],99.9%
same,Number of impurities (≥0.04%),[2]; [8],0
same,RRT = 1.403 (%) maximum single impurity,[2]; [8],0.13%
Nc1ccccc1NC(=O)c1ccc(CNC(=O)OCc2cccnc2)cc1.O=C(O)/C=C\C(=O)O [Compound B],Crystal form after storage,[1]; [4],unchanged
same,Crystal form after storage,[1]; [5],unchanged
same,Crystal form after storage,"[1]; Room temperature, 7 days",unchanged
same,Crystal form after storage,"[1]; Room temperature, 14 days",unchanged
same,phases after storage,[1],unchanged
same,solubility at 3 min,[3],1010 µg/mL
"Nc1ccccc1NC(=O)c1ccc(CNC(=O)OCc2cccnc2)cc1 [polymorph A, N-(2-aminophenyl)-4-[N-(pyridin-3-yl)methoxycarbonyllaminomethyl]benzamide]",solubility in water (in words),"[3]; finding of the inventors on prior-art polymorphs, no method given",low
"Nc1ccccc1NC(=O)c1ccc(CNC(=O)OCc2cccnc2)cc1 [entinostat, N-(2-aminophenyl)-4-[N-(pyridin-3-yl)methoxycarbonyllaminomethyl]benzamide]",solubility at 3 min,[3],< 50 µg/mL
same,"impurity at RRT=1.403, main ingredient and number of impurities after storage","[2]; 14 days under room temperature, high temperature, high humidity and acceleration",essentially unchanged
same,Main ingredient (%),[2]; [9],98.4%
same,Number of impurities (≥0.04%),[2]; [9],5
same,RRT = 1.403 (%) maximum single impurity,[2]; [9],1.44%
same,Main ingredient (%),[2]; [10],98.4%
same,Number of impurities (≥0.04%),[2]; [10],5
same,RRT = 1.403 (%) maximum single impurity,[2]; [10],1.43%
same,Main ingredient (%),[2]; [11],98.4%
same,Number of impurities (≥0.04%),[2]; [11],4
same,RRT = 1.403 (%) maximum single impurity,[2]; [11],1.42%
same,Main ingredient (%),[2]; [12],98.4%
same,Number of impurities (≥0.04%),[2]; [12],4
same,RRT = 1.403 (%) maximum single impurity,[2]; [12],1.42%
same,Main ingredient (%),[2]; [13],98.4%
same,Number of impurities (≥0.04%),[2]; [13],5
same,RRT = 1.403 (%) maximum single impurity,[2]; [13],1.41%
